The record followed here is BindingDB's records for patent US10981904 (Cancer Research Technology, 2021).

The assay addresses T1, Glutaminase kidney isoform, mitochondrial [63-669] (Homo sapiens, UniProt O94925).
T1 sequence (O94925 whole entry): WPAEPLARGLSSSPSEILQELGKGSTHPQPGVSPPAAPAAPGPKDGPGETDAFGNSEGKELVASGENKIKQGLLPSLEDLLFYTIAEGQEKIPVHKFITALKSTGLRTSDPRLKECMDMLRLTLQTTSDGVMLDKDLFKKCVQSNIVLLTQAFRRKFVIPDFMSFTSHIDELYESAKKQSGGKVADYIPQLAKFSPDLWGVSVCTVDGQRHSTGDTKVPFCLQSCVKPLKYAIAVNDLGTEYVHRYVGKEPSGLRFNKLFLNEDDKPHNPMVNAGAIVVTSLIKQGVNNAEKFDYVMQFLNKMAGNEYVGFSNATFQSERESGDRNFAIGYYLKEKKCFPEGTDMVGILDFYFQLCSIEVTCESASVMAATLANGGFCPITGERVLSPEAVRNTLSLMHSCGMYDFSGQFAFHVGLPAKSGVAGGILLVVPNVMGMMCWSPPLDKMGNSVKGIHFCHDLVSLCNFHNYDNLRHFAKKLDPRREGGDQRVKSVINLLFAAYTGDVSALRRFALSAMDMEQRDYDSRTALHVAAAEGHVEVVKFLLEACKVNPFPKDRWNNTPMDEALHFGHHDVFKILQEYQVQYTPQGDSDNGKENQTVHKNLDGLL
Description: GLS Enzyme Potency Assay. As to the method:
A Glutamate Oxidase/AmplexRed coupled assay was used to measure the ability of compounds to bind to and inhibit the activity of GLS1 in vitro. […] GLS1 was diluted to 2× working concentration and incubated at room temperature to allow the tetrameric/dimeric forms to reach steady state. Assay measurements were performed in buffer comprising 50 mM TRIS pH 7.8, 100 mM NaPO4, pH 7.8, 0.001% v/v Tween20. […] DMSO concentration was maintained at 2% by back filling with DMSO solution. […] 3 μL of 100 mM glutamine diluted in assay buffer was then added and the reaction incubated at room temperature for 60 minutes. […] An artefact version of the assay where the 6His tagged GLS protein and glutamine were replaced with assay buffer was also used to rule out non specific effects on the assay components.

`COC1CN(c2cc([C@H](OC)C(=O)Nc3nnc(N[C@@H]4CCN(c5cccnn5)C4)s3)ccc2F)C1` [US10981904, Example 7(b)] displayed an IC50 of 192 nM. The molecule `CO[C@H](C(=O)Nc1nnc(N[C@@H]2CCN(c3cccnn3)C2)s1)c1ccccc1C1COC1` [US10981904, Example 25] showed an IC50 of 1840 nM.

Usually IC50 stands for the concentration that inhibits the measured activity by half. Read a low IC50 as inhibition by little substance.
